Where “and” joins values, the source holds several entries; their conditions need not be identical. Identical values can stand only once.
How the values were obtained:
Assay type in all cases: cell-based
Chlorella sorokiniana = experiment: Algal growth with MSM by percent transmittance
Experimental: Two species of Chlorella were examined for growth—Chlorella sorokiniana a freshwater species and Chlorella minutissima a marine species. […] Growth was measured on day 0, 1, 2, 3, 4, 5, 6, 7, 8, 9 and 10. […] The following media were purchased from UTEX Culture Collection of Algae: Enriched Salt Water Medium and Volvox Dextrose Medium.
The algae were grown for 48 hours in the appropriate medium. The initial suspension was enumerated for each alga and is referred to as the starting inoculums. Chlorella sorokiniana was at 381 million cells per milliliter and Chlorella minutissima was at 19 million cells per milliliter. One milliliter of the algal solution was placed into 9 mLs of medium and mixed by vortexing. […] The tube of algae and MSM were incubated at room temperature with exposure to sunlight. […] Each dilution of MSM for each organism was set up in and analyzed in triplicate for each time interval measured. The samples were measured by percent transmittance on a UV/VIS spectrophotometer at wavelength 750 nm. The medium stock was tested for percent transmittance background levels at every time interval were measured. The lower percent transmittance indicated a higher growth factor.

Pseudomonas aeruginosa = experiment: USP Antimicrobial Effectiveness Test (AET) of MSM supplemented TSB; design: key: Colonies too numerous to count (TNTC); settings: 48 hrs
Source text: (§1) Compounds or formulated products having antimicrobial activity may be evaluated with the United States Pharmacopeia (USP) Antimicrobial Effectiveness Test (AET). The AET involves the addition of specified microorganisms (Candida albicans, Aspergillus niger, Escherichia coli, Pseudomonas aeruginosa and Staphylococcus aureus) directly to a test product at relatively high concentrations to simulate contamination. The product is held for one month, with weekly analysis of microorganism levels. […] For yeast and mold, no increase from the initial inoculums level is permitted. […] Inoculations were made using Candida albicans, Aspergillus niger, Escherichia coli, Pseudomonas aeruginosa and Staphylococcus aureus. Tryptic soy broth (TSB) was used as the culturing media. […] The inoculated media was held for one month, during which time the added microorganisms were enumerated weekly to determine if they were growing, dying off, or remaining near the initial inoculation level. […] The acceptance criteria for antimicrobial effectiveness are described in detail in the USP, herein incorporated by reference.

Escherichia coli = experiment: as above; design: key: Colonies too numerous to count (TNTC); settings: 48 hrs
Source text: as §1

[1] = tested on: normal flora found in the milks; experiment: Growth of non-probiotic microorganisms in Acidophilus milk (standard plate counts)
Experimental: 31, 2013. […] The Acidophilus milk was low fat (Darigold). […] This was performed to look at how MSM would affect the normal flora found in the milks. Day 0 was the day the samples were setup for the start of the study. The Acidophilus plus Bifidus milk started with a higher count at Day 0 than what is typically expected. This caused the end values to be elevated. The Acidophilus milk product at Day 0 was at expected values. The Acidophilus milk maintained adequate growth rates through out the study and were equivalent to typical growth rates seen in milk products.

Molecule `CS(C)(=O)=O` [MSM, Methylsulfonylmethane] has a percent transmittance (Chlorella sorokiniana; MSM 0.5, day 0, 750 nm) of 47.3%, a percent transmittance (Chlorella sorokiniana; MSM 0.5, day 1, 750 nm) of 41.8% and a percent transmittance (Chlorella sorokiniana; MSM 0.5, day 2, 750 nm) of 29.3%. For the same molecule, the percent transmittance (Chlorella sorokiniana; MSM 0.5, day 3, 750 nm) was 29.6%, the percent transmittance (Chlorella sorokiniana; MSM 0.5, day 4, 750 nm) was 19.0% and the percent transmittance (Chlorella sorokiniana; MSM 0.5, day 5, 750 nm) was 12.4%. The percent transmittance (Chlorella sorokiniana; MSM 0.5, day 6, 750 nm) was 12.5%, the percent transmittance (Chlorella sorokiniana; MSM 0.5, day 7, 750 nm) was 11.9% and the percent transmittance (Chlorella sorokiniana; MSM 0.5, day 8, 750 nm) was 12.2%. The percent transmittance (Chlorella sorokiniana; MSM 0.5, day 9, 750 nm) was 7.5%, the percent transmittance (Chlorella sorokiniana; MSM 0.5, day 10, 750 nm) was 6.4% and the percent transmittance (Chlorella sorokiniana; MSM 1, day 0, 750 nm) was 48.7%. The percent transmittance (Chlorella sorokiniana; MSM 1, day 1, 750 nm) was 42.5%, the percent transmittance (Chlorella sorokiniana; MSM 1, day 2, 750 nm) was 37.5% and the percent transmittance (Chlorella sorokiniana; MSM 1, day 3, 750 nm) was 37.5%. For the same molecule, the percent transmittance (Chlorella sorokiniana; MSM 1, day 4, 750 nm) was 17.3%, the percent transmittance (Chlorella sorokiniana; MSM 1, day 5, 750 nm) was 13.5% and the percent transmittance (Chlorella sorokiniana; MSM 1, day 6, 750 nm) was 13.0%. The percent transmittance (Chlorella sorokiniana; MSM 1, day 7, 750 nm) was 12.5%, the percent transmittance (Chlorella sorokiniana; MSM 1, day 8, 750 nm) was 12.4% and the percent transmittance (Chlorella sorokiniana; MSM 1, day 9, 750 nm) was 7.8%. The percent transmittance (Chlorella sorokiniana; MSM 1, day 10, 750 nm) was 6.6%, the percent transmittance (Chlorella sorokiniana; MSM 2.5, day 0, 750 nm) was 40.6% and the percent transmittance (Chlorella sorokiniana; MSM 2.5, day 1, 750 nm) was 43.1%. For the same molecule, the percent transmittance (Chlorella sorokiniana; MSM 2.5, day 2, 750 nm) was 44.9%, the percent transmittance (Chlorella sorokiniana; MSM 2.5, day 3, 750 nm) was 43.8% and the percent transmittance (Chlorella sorokiniana; MSM 2.5, day 4, 750 nm) was 26.1%. It also gave a percent transmittance (Chlorella sorokiniana; MSM 2.5, day 5, 750 nm) of 10.3%, a percent transmittance (Chlorella sorokiniana; MSM 2.5, day 6, 750 nm) of 10.9% and a percent transmittance (Chlorella sorokiniana; MSM 2.5, day 7, 750 nm) of 11.0%. The percent transmittance (Chlorella sorokiniana; MSM 2.5, day 8, 750 nm) was 11.2%, the percent transmittance (Chlorella sorokiniana; MSM 2.5, day 9, 750 nm) was 8.4% and the percent transmittance (Chlorella sorokiniana; MSM 2.5, day 10, 750 nm) was 6.0%. For the same molecule, the percent transmittance (Chlorella sorokiniana; MSM 5, day 0, 750 nm) was 35.6%, the percent transmittance (Chlorella sorokiniana; MSM 5, day 1, 750 nm) was 31.2% and the percent transmittance (Chlorella sorokiniana; MSM 5, day 2, 750 nm) was 27.4%. The percent transmittance (Chlorella sorokiniana; MSM 5, day 3, 750 nm) was 21.4%, the percent transmittance (Chlorella sorokiniana; MSM 5, day 4, 750 nm) was 18.2% and the percent transmittance (Chlorella sorokiniana; MSM 5, day 5, 750 nm) was 15.7%. For the same molecule, the percent transmittance (Chlorella sorokiniana; MSM 5, day 6, 750 nm) was 15.9%, the percent transmittance (Chlorella sorokiniana; MSM 5, day 7, 750 nm) was 16.3% and the percent transmittance (Chlorella sorokiniana; MSM 5, day 8, 750 nm) was 17.0%. The percent transmittance (Chlorella sorokiniana; MSM 5, day 9, 750 nm) was 13.7%, the percent transmittance (Chlorella sorokiniana; MSM 5, day 10, 750 nm) was 12.8% and the percent transmittance (Chlorella sorokiniana; MSM 10, day 0, 750 nm) was 31.2%. It also gave a percent transmittance (Chlorella sorokiniana; MSM 10, day 1, 750 nm) of 31.3%, a percent transmittance (Chlorella sorokiniana; MSM 10, day 2, 750 nm) of 29.7% and a percent transmittance (Chlorella sorokiniana; MSM 10, day 3, 750 nm) of 28.4%. For the same molecule, the percent transmittance (Chlorella sorokiniana; MSM 10, day 4, 750 nm) was 29.0%, the percent transmittance (Chlorella sorokiniana; MSM 10, day 5, 750 nm) was 28.7% and the percent transmittance (Chlorella sorokiniana; MSM 10, day 6, 750 nm) was 27.1%. For the same molecule, the percent transmittance (Chlorella sorokiniana; MSM 10, day 7, 750 nm) was 27.6%, the percent transmittance (Chlorella sorokiniana; MSM 10, day 8, 750 nm) was 27.1% and the percent transmittance (Chlorella sorokiniana; MSM 10, day 9, 750 nm) was 76.4%. It also gave a percent transmittance (Chlorella sorokiniana; MSM 10, day 10, 750 nm) of 93.8%, a percent transmittance (Chlorella sorokiniana; MSM 20, day 0, 750 nm) of 19.3% and a percent transmittance (Chlorella sorokiniana; MSM 20, day 1, 750 nm) of 21.9%. It also gave a percent transmittance (Chlorella sorokiniana; MSM 20, day 2, 750 nm) of 24.1%, a percent transmittance (Chlorella sorokiniana; MSM 20, day 3, 750 nm) of 28.1% and a percent transmittance (Chlorella sorokiniana; MSM 20, day 4, 750 nm) of 31.4%. It also gave a percent transmittance (Chlorella sorokiniana; MSM 20, day 5, 750 nm) of 33.6%, a percent transmittance (Chlorella sorokiniana; MSM 20, day 6, 750 nm) of 36.8% and a percent transmittance (Chlorella sorokiniana; MSM 20, day 7, 750 nm) of 40.6%. For the same molecule, the percent transmittance (Chlorella sorokiniana; MSM 20, day 8, 750 nm) was 40.8%, the percent transmittance (Chlorella sorokiniana; MSM 20, day 9, 750 nm) was 84.8% and the percent transmittance (Chlorella sorokiniana; MSM 20, day 10, 750 nm) was 96.7%. For the same molecule, the “AET test results (microorganism count)” value (Pseudomonas aeruginosa; 1:100 dilution of MSM in TSB) was “TNTC”, the “AET test results (microorganism count)” value (Pseudomonas aeruginosa; 1:1000 dilution of MSM in TSB) was “TNTC” and the “AET test results (microorganism count)” value (Escherichia coli; 1:100 dilution of MSM in TSB) was “TNTC”. The “AET test results (microorganism count)” value (Escherichia coli; 1:1000 dilution of MSM in TSB) was “TNTC”, the “growth of normal flora (standard plate counts)” value ([1]; 5.0% MSM, throughout the study) was “did not allow any significant growth” and the “Growth of non-probiotic microorganisms in Acidophilus Milk” value (“Growth of non-probiotic microorganisms” below) ([1]; A/B milk, […] MSM, Day 0) was 370 cfu per mL. The “Growth of non-probiotic microorganisms” value ([1]; A/B milk, […] MSM, Day 3) was 480 cfu per mL, the “Growth of non-probiotic microorganisms” value ([1]; A/B milk, […] MSM, Day 7) was 570 cfu per mL and the “Growth of non-probiotic microorganisms” value ([1]; A/B milk, […] MSM, Day 14) was 1460 cfu per mL. For the same molecule, the “Growth of non-probiotic microorganisms” value ([1]; A/B milk, […] MSM, Day 21) was 3500 cfu per mL, the “Growth of non-probiotic microorganisms” value ([1]; A/B milk, […] MSM, Day 28) was 110000 cfu per mL and the “Growth of non-probiotic microorganisms” value ([1]; acidophilus milk, 0.50% MSM, Day 0) was 20 cfu per mL and 30 cfu per mL. The “Growth of non-probiotic microorganisms” value ([1]; acidophilus milk, 0.50% MSM, Day 3) was 10 cfu per mL, the “Growth of non-probiotic microorganisms” value ([1]; acidophilus milk, 0.50% MSM, Day 7) was 10 cfu per mL and the “Growth of non-probiotic microorganisms” value ([1]; acidophilus milk, 0.50% MSM, Day 14) was 20 cfu per mL. For the same molecule, the “Growth of non-probiotic microorganisms” value ([1]; acidophilus milk, 0.50% MSM, Day 21) was 20 cfu per mL and 40 cfu per mL, the “Growth of non-probiotic microorganisms” value ([1]; acidophilus milk, 5% MSM, Day 0) was 10 cfu per mL and 20 cfu per mL and the “Growth of non-probiotic microorganisms” value ([1]; acidophilus milk, 5% MSM, Day 3) was 10 cfu per mL. For the same molecule, the “Growth of non-probiotic microorganisms” value ([1]; acidophilus milk, 5% MSM, Day 7) was 10 cfu per mL and 20 cfu per mL, the “Growth of non-probiotic microorganisms” value ([1]; acidophilus milk, 5% MSM, Day 14) was 20 cfu per mL and 10 cfu per mL and the “Growth of non-probiotic microorganisms” value ([1]; acidophilus milk, 5% MSM, Day 21) was 20 cfu per mL and 10 cfu per mL. For the same molecule, the “Growth of non-probiotic microorganisms” value ([1]; acidophilus milk, 5% MSM, Day 28) was 10 cfu per mL, the “Growth of non-probiotic microorganisms” value ([1]; acidophilus milk, […] MSM, Day 0) was 10 cfu per mL and the “Growth of non-probiotic microorganisms” value ([1]; acidophilus milk, […] MSM, Day 14) was under 10 cfu per mL.

From patent publication US9487749B2 (priority 2009, dated 2016)
